Laboratory results as given in patent EP0091208A1, “Method for combating insect pests, and novel cyclopropane carboxylates useful as active ingredients therein” (IMPERIAL CHEMICAL INDUSTRIES PLC, priority 1982, dated 1983).
Converted amounts (≈) assume the structure as drawn.

Legend:
[1] = tested on: Musca domestica (houseflies - adults); test: Insecticidal mortality test, contact, houseflies; format: in vivo; details: cotton wool/milk, sugar, 1 day
Procedure: (§1) The activity of the compound was determined using a variety of insect pests. The compound was used in the form of liquid preparations containing 100, 50, 25, 10 or […] p.p.m. by weight of the compound. The preparations were made by dissolving the compound in a mixture of solvents consisting of 4 parts by volume of acetone and 1 part by volume of diacetone alcohol. The solutions were then diluted with water containing 0.01% by weight of a wetting agent sold under the trade name "LISSAPOL" NX until the liquid preparations contained the required concentration of the compound. "Lissapol" is a Trade Mark.
(§2) The test procedure adopted with regard to each pest was basically the same and comprised supporting a number of the pests on a medium which was usually a host plant or a foodstuff on which the pests feed, and treating either or both the pests and the medium with the preparations. The mortality of the pests was then assessed at periods usually varying from one to three days after the treatment.
(§3) The results of the tests are given in Table IIB for each of the products A to H at the rate in parts per million given in the second column as a grading of mortality on a scale of 0-9 wherein
(§4) In Table IIB the pest organism used is designated by a letter code and the pest species, the support medium or food, and the type and duration of test is given in Table IIA.

[2] = tested on: Spodoptera littoralis (cotton leaf worm - larvae); test: Insecticidal mortality test, contact/residual, cotton leaf worm; format: in vivo; details: cabbage leaves, 3 days
Procedure: as §1, §2, §3, §4

[3] = tested on: Diabrotica balteata (rootworm - larvae); test: Insecticidal mortality test, contact, rootworm; format: in vivo; details: filter paper, 3 days
Procedure: as §1, §2, §3, §4

[4] = tested on: Plutella xylostella (diamond back moth - larvae); test: Insecticidal mortality test, residual, diamond back moth; format: in vivo; details: cabbage leaves, 3 days
Procedure: as §1, §2, §3, §4

[5] = tested on: Aphis fabae (aphids); test: Insecticidal mortality test, contact, aphids; format: in vivo; details: French beans, 2 days
Procedure: as §1, §2, §3, §4

[6] = Fish toxicity, young carp; details: in vivo
Excerpt: (§5) This Example illustrates the improved safety to fish of the compounds for use in the method of the invention compared with known compounds of similar chemical type. Table III sets out the LC50 values for young trout and carp in parts per million for the compounds for use in the method of this invention and parts per billion for the known (reference) compounds.

[7] = Fish toxicity, young trout; details: in vivo
Excerpt: as §5

Structure (SMILES): CC1(C)[C@H](/C=C(\Cl)C(F)(F)F)[C@@H]1C(=O)OC(C#N)c1cccc(Oc2ccc(Br)cc2)c1 (mixture of isomers) [Compound 6, (+)-α-cyano-3-(4-bromophenoxy)benzyl (+)-cis-3-(Z-2-chloro-3,3,3-trifluoroprop-1-en-1-yl)-2,2-dimethylcyclopropane carboxylate]
- grading of mortality MD ([1]; rate 10 ppm): 6 (60 to 69%)
- grading of mortality MD ([1]; rate 100 ppm): 9 (90 to 100%)
- grading of mortality SL ([2]; rate 10 ppm): 9 (90 to 100%)
- grading of mortality SL ([2]; rate 100 ppm): 9 (90 to 100%)
- grading of mortality DB ([3]; rate 10 ppm): 3 (30 to 39%)
- grading of mortality DB ([3]; rate 100 ppm): 5 (50 to 59%)
- grading of mortality PX ([4]; rate 10 ppm): 6 (60 to 69%)
- grading of mortality PX ([4]; rate 100 ppm): 7 (70 to 79%)
- grading of mortality AF ([5]; rate 10 ppm): 9 (90 to 100%)
- grading of mortality AF ([5]; rate 100 ppm): 9 (90 to 100%)
- LC50 ([6]; compounds of the invention): 10 µg/mL (≈ 18.9 µM)

Structure (SMILES): CC1(C)[C@H](/C=C(\Cl)C(F)(F)F)[C@H]1C(=O)OC(C#N)c1cccc(Oc2ccc(Cl)cc2)c1 (stereo partly drawn) [Compound 8, (+)-α-cyano-3-(4-chlorophenoxy)benzyl (+)-trans-3-(Z-2-chloro-3,3,3-trifluoroprop-l-en-yl)-2,2-dimethylcyclopropane carboxylate]
- grading of mortality MD ([1]; rate 10 ppm): 9 (90 to 100%)
- grading of mortality MD ([1]; rate 100 ppm): 9 (90 to 100%)
- grading of mortality SL ([2]; rate 10 ppm): 9 (90 to 100%)
- grading of mortality SL ([2]; rate 100 ppm): 9 (90 to 100%)
- grading of mortality DB ([3]; rate 10 ppm): 0 (less than 10% mortality)
- grading of mortality DB ([3]; rate 100 ppm): 5 (50 to 59%)
- grading of mortality PX ([4]; rate 10 ppm): 8 (80 to 89%)
- grading of mortality PX ([4]; rate 100 ppm): 9 (90 to 100%)
- grading of mortality AF ([5]; rate 10 ppm): 9 (90 to 100%)
- grading of mortality AF ([5]; rate 100 ppm): 9 (90 to 100%)

Structure (SMILES): CC1(C)C(C=C(Cl)Cl)C1C(=O)OC(C#N)c1cccc(Oc2ccccc2)c1 (racemic) [Cypermethrin, (±)-α-cyano-3-phenoxybenzyl (±)-cis/trans-3-(2,2-dichlorovinyl)-2,2-dimethylcyclopropane carboxylate, reference compound]
- LC50 ([7]; known (reference) compounds): ~0.002 µg/mL (≈ 0.0048 µM)

Structure (SMILES): CC1(C)[C@H](/C=C(\Cl)C(F)(F)F)[C@@H]1C(=O)OC(C#N)c1cccc(Oc2ccc(F)cc2)c1 (mixture of isomers) [Compound 7, (+)-α-cyano-3-(4-fluorophenoxy)benzyl (+)-cis-3-(Z-2-chloro-3,3,3-trifluoroprop-1-en-1-yl)-2,2-dimethylcyclopropane carboxylate]
- grading of mortality MD ([1]; rate 10 ppm): 0 (less than 10% mortality)
- grading of mortality MD ([1]; rate 100 ppm): 0 (less than 10% mortality)
- grading of mortality SL ([2]; rate 10 ppm): 9 (90 to 100%)
- grading of mortality SL ([2]; rate 100 ppm): 9 (90 to 100%)
- grading of mortality DB ([3]; rate 10 ppm): 5 (50 to 59%)
- grading of mortality DB ([3]; rate 100 ppm): 9 (90 to 100%)
- grading of mortality PX ([4]; rate 10 ppm): 9 (90 to 100%)
- grading of mortality PX ([4]; rate 100 ppm): 9 (90 to 100%)
- grading of mortality AF ([5]; rate 10 ppm): 9 (90 to 100%)
- grading of mortality AF ([5]; rate 100 ppm): 9 (90 to 100%)
- LC50 ([7]; compounds of the invention): 1 µg/mL (≈ 2.14 µM)

Structure (SMILES): CC1(C)C(/C=C(\Cl)C(F)(F)F)C1C(=O)OC(C#N)c1cccc(Oc2ccccc2)c1 (racemic) [Cyhalothrin, (±)-α-cyano-3-phenoxybenzyl (±)-cis-3-(Z-2-chloro-3,3,3-trifluoroprop-1-en-1-yl)-2,2-dimethylcyclopropane carboxylate, reference compound]
- LC50 ([7]; known (reference) compounds): 0.00073 µg/mL (≈ 0.00162 µM)
- LC50 ([6]; known (reference) compounds): 0.00134 µg/mL (≈ 0.00298 µM)

Structure (SMILES): CC1(C)[C@H](C(=O)OC(C#N)c2cccc(Oc3ccc(Cl)cc3)c2)[C@@H]1/C=C(\Cl)C(F)(F)F (stereo partly drawn) [Compound 1, (+)-χ-cyano-3-(4-chlorophenoxy)benzyl (+)-cis-3-(Z-2-chloro-3,3,3-trifluoroprop-l-en-l-yl)-2,2-dimethylcyclopropane carboxylate]
- grading of mortality MD ([1]; rate 12 ppm): 9 (90 to 100%)
- grading of mortality MD ([1]; rate 25 ppm): 9 (90 to 100%)
- grading of mortality MD ([1]; rate 50 ppm): 9 (90 to 100%)
- grading of mortality MD ([1]; rate 100 ppm): 9 (90 to 100%)
- grading of mortality SL ([2]; rate 12 ppm): 0 (less than 10% mortality)
- grading of mortality SL ([2]; rate 25 ppm): 0 (less than 10% mortality)
- grading of mortality SL ([2]; rate 50 ppm): 9 (90 to 100%)
- grading of mortality SL ([2]; rate 100 ppm): 9 (90 to 100%)
- grading of mortality DB ([3]; rate 12 ppm): 0 (less than 10% mortality)
- grading of mortality DB ([3]; rate 25 ppm): 0 (less than 10% mortality)
- grading of mortality DB ([3]; rate 50 ppm): 9 (90 to 100%)
- grading of mortality DB ([3]; rate 100 ppm): 9 (90 to 100%)
- grading of mortality PX ([4]; rate 12 ppm): 2 (20 to 29%)
- grading of mortality PX ([4]; rate 25 ppm): 7 (70 to 79%)
- grading of mortality PX ([4]; rate 50 ppm): 9 (90 to 100%)
- grading of mortality PX ([4]; rate 100 ppm): 9 (90 to 100%)
- grading of mortality AF ([5]; rate 12 ppm): 9 (90 to 100%)
- grading of mortality AF ([5]; rate 25 ppm): 9 (90 to 100%)
- grading of mortality AF ([5]; rate 50 ppm): 9 (90 to 100%)
- grading of mortality AF ([5]; rate 100 ppm): 9 (90 to 100%)
- LC50 ([7]; compounds of the invention): 20 µg/mL (≈ 41.3 µM)

Structure (SMILES): CC1(C)[C@H](C(=O)OCc2cccc(Oc3ccc(Cl)cc3)c2)[C@@H]1/C=C(\Cl)C(F)(F)F (racemic) [Compound 5, (+)-3-(4-chlorophenoxy)benzyl (+)-cis-3-(Z-2-chloro-3,3,3-trifluoroprop-l-en-yl)-2,2-dimethylcyclopropane carboxylate]
- grading of mortality MD ([1]; rate 10 ppm): 1 (from 10 to 19%)
- grading of mortality MD ([1]; rate 100 ppm): 9 (90 to 100%)
- grading of mortality SL ([2]; rate 10 ppm): 9 (90 to 100%)
- grading of mortality SL ([2]; rate 100 ppm): 9 (90 to 100%)
- grading of mortality DB ([3]; rate 10 ppm): 3 (30 to 39%)
- grading of mortality DB ([3]; rate 100 ppm): 5 (50 to 59%)
- grading of mortality PX ([4]; rate 10 ppm): 0 (less than 10% mortality)
- grading of mortality PX ([4]; rate 100 ppm): 9 (90 to 100%)
- grading of mortality AF ([5]; rate 10 ppm): 9 (90 to 100%)
- grading of mortality AF ([5]; rate 100 ppm): 9 (90 to 100%)
- LC50 ([7]; compounds of the invention): 10 µg/mL (≈ 21.8 µM)
